Data reported in patent US20260327578A1, “TRANSGLUTAMINASES AND USES THEREOF” (CURIE CO. INC., priority 2023, published 2026).

Columns and labels:
[1] = system: E. coli (ATCC 8739) / C. albicans (ATCC 10231); assay: MIC of permeabilizer co-dosants with and without Tgase variant; assay type: cell-based; conditions: for Co-Dosant MIC, with Tgase variant: with Tgase variant A3 (SEQ ID NO: 4): 12.5 ppm with polymyxin B, 200 ppm with chlorhexidine and with the mixture
Procedure: E. coli (ATCC 8739) and C. albicans (ATCC 10231) were acquired from the American Type Culture Collection (ATCC) (Manassas, VA) and maintained as −80° C. frozen glycerol stocks.
The following day, the cell density of the saturated cultures was calculated using OD600 and cultures were diluted to 104 to 10^6 CFU/mL in sterile Mueller Hinton broth to generate the inoculum, and 100 μL of the inoculum was combined with 100 μL of serially diluted Tgase variant A3 (SEQ ID NO: 4) at a range of 0.0001-0.05 weight percent. Growth curves were measured by OD600 on a BioTek® Synergy Plate Reader. All test conditions were performed in triplicate. MIC was determined to be […] (0.005% w/v) against E. coli for the enzyme described in SEQ ID NO: 4 using OD600.
For MIC determination of yeast cultures, C. albicans (ATCC 10231) was grown overnight (24 hours) in Sabouraud Dextrose broth at 30° C. The following day, the cell density of the saturated cultures was calculated using OD600 and cultures were diluted to 104 to 10^6 CFU/mL in sterile Sabouraud Dextrose broth media to generate the inoculum, and 100 μL of the inoculum was combined with 100 μL of serially diluted Tgase variant at a range of 0.0001-0.05 weight percent. The cultures were grown overnight at 30° C. and growth curves were measured by OD600 on a BioTek® Synergy Plate Reader. All test conditions were performed in triplicate. MIC was determined to be […] (0.005% w/v) against C. albicans for the enzyme described in SEQ ID NO: 4 using OD600.
Aseptilase activities of Tgase variant A3 (SEQ ID NO: 4) in combination with each of the three permeabilizer co-dosants, polymyxin B, chlorhexidine, and a 10000:4000:1 mixture by weight of sodium hexametaphosphate, phytic acid and chlorhexidine, were tested. […] The experiments were performed as described in Example 5. The co-dosants were added into Tgase variant A3 (SEQ ID NO: 4) solutions at concentrations of 0.125 g/L, 0.05 g/L, and 350 mM, respectively. The results are shown in Table 12 with Tgase concentrations reported within the table at the best MIC.

C. albicans = assay: Preservative efficacy in body lotion against C. albicans; assay type: cell-based; conditions: 0.005% in combinations, phenoxyethanol 0.7% alone, 0.3% combined, caprylyl glycol 0.7% alone, 0.35% combined, sodium benzoate 0.5% + EDTA 0.5%, 2% 2:1 propanediol:hexanediol, 0.5% CHA solution
Procedure: (§1) A vessel was filled with deionized water, placed under an overhead stirrer set to moderate mixing, and heated to 75-80° C. Glycerin was added to 2% and mixed until dissolved, followed by xanthan gum to 0.2%. At 75-80° C., cetearyl glucoside and cetearyl alcohol were added to 4% and 3%. Once both had melted fully, milk thistle seed oil was added and the batch was homogenized with a Silverson homogenizer with the standard emulsion screen until the batch had turned milky white. The batch was removed from heat and returned to propellor mixing with decreased speed to allow the emulsion to set up. At 40° C., pH was adjusted to pH 5.5-6.0 using citric acid or sodium hydroxide and split into several portions and allowed to finish cooling. Once cooled to room temperature, one portion of the body lotion was left unpreserved and the remaining portions were preserved with one or more substances selected from aseptilase, phenoxyethanol, caprylyl glycol, sodium benzoate, and EDTA. All samples were inoculated with E. coli (10^6 CFU/mL) and C. albicans (10^5 CFU/mL) and plated after 2 and 7 days.

E. coli = assay: Preservative efficacy in body lotion against E. coli; assay type: cell-based; conditions: 0.005% in combinations, phenoxyethanol 0.7% alone, 0.3% combined, caprylyl glycol 0.7% alone, 0.35% combined, sodium benzoate 0.5% + EDTA 0.5%, 2% 2:1 propanediol:hexanediol, 0.5% CHA solution
Procedure: as §1

collagen = assay: Collagen-modifying activity with FITC-gelatin or FITC-cadaverine; assay type: biochemical; conditions: 16 hours, pH 7.4
Procedure: Substrate specificity for collagen of Tgase variant A3 (SEQ ID NO: 4) was tested by allowing the variant to react with either fluorescein-labeled gelatin (FITC-Gelatin, to test protein-protein cross-linking) or fluorescein-labeled cadaverine (FITC-cadaverine, to test protein-small molecule cross-linking) with a collagen layer deposited on the bottom of a 96-well microtiter plate. Tgase variant A3 (SEQ ID NO: 4) and wild-type Tgase were diluted to 4-800 ppm in 50 mM phosphate buffer, pH 7.4, supplemented with 100 mM NaCl in 96-well collagen coated microtiter plates. Either FITC-gelatin or FITC-cadaverine was added to 1 g/L (final volume 100 μL) and the plates were sealed and incubated at either 37° C. or 50° C. for 16 hours. The reaction supernatants were carefully removed and then 200 μL 50 mM [COMPOUND LEFT OUT] mM NaCl, pH 7.4 buffer was added gently against the side of each well then carefully removed. This wash step was repeated. The plate-bound material was extracted by vigorously pipetting 100 μL dimethylsulfoxide into each well, then the extract was transferred into a black bottom 96-well plate. The fluorescence of the samples was measured at an excitation wavelength of 487 nm and an emission wavelength of 528 nm. The fluorescence signal is assumed to be proportionate to the concentration of fluorescent product extracted from the surface of the plate. For both FITC-gelatin and FITC-cadaverine, the fluorescence response per concentration enzyme was higher for wells treated with Tgase variant A3 (SEQ ID NO: 4) than for wells treated with wild-type Tgase (Table 11).

[2] = Thermal stability at 55 °C, specific activity by colorimetric hydroxamate assay; assay type: biochemical
Procedure: Tgase activity was measured herein using a colorimetric hydroxamate activity assay (Folk and Cole (1965) J Biol Chemistry 240 (7): 2951-2960). Briefly, the hydroxamate assay uses N-benzyloxycarbonyl-L-glutaminyl-glycine (ZQG) as a low molecular weight amine acceptor substrate and hydroxylamine as an amine donor. In the presence of catalytically active Tgase, the hydroxylamine is incorporated to form Z-glutamylhydroxamate-glycine, which develops a colored complex with iron (III), detectable at 525 nm after incubation at 37° C. for 5-200 minutes. The calibration was performed using L-glutamic acid gamma-monohydroxamate (Millipore® Sigma®) as a standard. One unit of Tgase was defined as the amount of enzyme that catalyzes formation of 1 μmol of the peptide derivative of gamma-glutamylhydroxylamine per minute. Activity of Tgase variants is depicted in Tables 2-4.
A commercially available wild-type Tgase (Ajinimoto®, Activa® TI formulation) formulated at 0.75-1.0% enzyme in maltodextrin was purchased from Amazon.com and dissolved in water at 20% w/v. The concentration of the mature Tgase in the solution was confirmed by high-performance liquid chromatography (HPLC) and the sample was further diluted to 0.1 g/L of enzyme. Following dilution, the enzyme was subjected to the hydroxamate assay as described in Example 4 to determine specific activity. The specific activity of the commercial wild-type Tgase compared to Tgase variant A3 (SEQ ID NO: 4), further comprising an N-terminal methionine, is shown in FIG. 1.
The thermal stability of Tgase variant A3 (SEQ ID NO: 4) compared to the commercial wild-type Tgase was evaluated by incubating the samples at 55° C. and testing the enzyme concentration and activity at various timepoints. Six timepoints were tested: 0, 30, 60, 120, 240, and 480 minutes.
The enzyme concentration was measured by HPLC. The samples were diluted 10-fold in 50 mM phosphate pH 7.4, 100 mM NaCl. The samples were tested by reverse phase using a Zorbax SB300-C8 column with 0.1% trifluoroacetic acid in water (MPA) and 0.08% trifluoroacetic acid in acetonitrile (MPB).
The activity was determined using the colorimetric activity assay described in Example 4A. The specific activity (U/mg) of the samples was calculated using the concentration of each sample as determined per Example 4D (results shown in Table 10).

[H]/N=C(\N/C(=N/[H])NCCCCCCNC(=N)NC(=N)Nc1ccc(Cl)cc1)Nc1ccc(Cl)cc1 [Chlorhexidine, reference compound]
MIC ([1]; read-out: Co-Dosant MIC, without Tgase variant): 2 µg/mL | Co-Dosant MIC, with Tgase variant [1]: 1 ppm

CCCCCCC(O)CO (stereo not shown) [caprylyl glycol]
Preservative efficacy against C. albicans, log reduction (C. albicans; day 2, aseptilase 0.01% alone): 1.18 log reduction in CFU/mL | Preservative efficacy against C. albicans, log reduction (C. albicans; day 7, aseptilase 0.01% alone): 2.70 log reduction in CFU/mL | Preservative efficacy against E. coli, log reduction (E. coli; day 2, aseptilase 0.01% alone): 5.00 log reduction in CFU/mL | Preservative efficacy against E. coli, log reduction (E. coli; day 7, aseptilase 0.01% alone): 5.00 log reduction in CFU/mL

OCCOc1ccccc1 [phenoxyethanol]
Preservative efficacy against C. albicans, log reduction (C. albicans; day 2, aseptilase 0.01% alone): 0.68 log reduction in CFU/mL | Preservative efficacy against C. albicans, log reduction (C. albicans; day 7, aseptilase 0.01% alone): 1.73 log reduction in CFU/mL | Preservative efficacy against E. coli, log reduction (E. coli; day 2, aseptilase 0.01% alone): 2.15 log reduction in CFU/mL | Preservative efficacy against E. coli, log reduction (E. coli; day 7, aseptilase 0.01% alone): 3.00 log reduction in CFU/mL

Polymyxin B [reference compound]
Co-Dosant MIC, with Tgase variant [1]: 0.156 ppm | Co-Dosant MIC, without Tgase variant ([1]; without Tgase variant): 0.625 ppm

B1: Wild-type Tgase: commercially available wild-type Tgase (Ajinimoto, Activa TI formulation) formulated at 0.75-1.0% enzyme in maltodextrin (protein, UniProt P81453 77-407, looked up)
Protein-glutamine …: DSDDRVTPPAEPLDRMPDPYRPSYGRAETVVNNYIRKWQQVYSHRDGRKQQMTEEQREWLSYGCVGVTWVNSGQYPTNRLAFASFDEDRFKNELKNGRPRSGETRAEFEGRVAKESFDEEKGFQRAREVASVMNRALENAHDESAYLDNLKKELANGNDALRNEDARSPFYSALRNTPSFKERNGGNHDPSRMKAVIYSKHFWSGQDRSSSADKRKYGDPDAFRPAPGTGLVDMSRDRNIPRSPTSPGEGFVNFDYGWFGAQTEADADKTVWTHGNHYHAPNGSLGAMHVYESKFRNWSEGYSDFDRGAYVITFIPKSWNTAPDKVKQGWP
modifications: formulated in maltodextrin
Fluorescence/[Enzyme] (collagen; FITC-Cadaverine, 37 °C): 6.7 RFU/ppm | Fluorescence/[Enzyme] (collagen; FITC-Cadaverine, 50 °C): 4.4 RFU/ppm | Fluorescence/[Enzyme] (collagen; FITC-Gelatin, 37 °C): 4.6 RFU/ppm | Fluorescence/[Enzyme] (collagen; FITC-Gelatin, 50 °C): 6.8 RFU/ppm | Specific activity ([2]; timepoint 0 min): 23.3 U/mg | Specific activity ([2]; timepoint 30 min): 31.0 U/mg | Specific activity ([2]; timepoint 60 min): 27.0 U/mg | Specific activity ([2]; timepoint 120 min): 29.3 U/mg | Specific activity ([2]; timepoint 240 min): 36.8 U/mg | Specific activity ([2]; timepoint 480 min): 21.2 U/mg
